Reference: PMC6071264 (Toxins, 2018)
Bridge positions count the residues as written; N and C are the ends. Peptide text beside a SMILES is read from it.

What was measured:
[1] = molecular target: T84 cells (Homo sapiens, UniProt P25092); assay: T84 cell assay (cGMP response); format: cell-based; conditions: read-out: EC50 in the T84 cell assay, pre-incubation 1 mM IBMX 10 min, sample 60 min at 37 °C, cGMP enzyme immunoassay, three independent experiments, four-parameter logistic regression, bottom set to zero, Figure 2C
Chain of T84 cells (P25092 24-1073): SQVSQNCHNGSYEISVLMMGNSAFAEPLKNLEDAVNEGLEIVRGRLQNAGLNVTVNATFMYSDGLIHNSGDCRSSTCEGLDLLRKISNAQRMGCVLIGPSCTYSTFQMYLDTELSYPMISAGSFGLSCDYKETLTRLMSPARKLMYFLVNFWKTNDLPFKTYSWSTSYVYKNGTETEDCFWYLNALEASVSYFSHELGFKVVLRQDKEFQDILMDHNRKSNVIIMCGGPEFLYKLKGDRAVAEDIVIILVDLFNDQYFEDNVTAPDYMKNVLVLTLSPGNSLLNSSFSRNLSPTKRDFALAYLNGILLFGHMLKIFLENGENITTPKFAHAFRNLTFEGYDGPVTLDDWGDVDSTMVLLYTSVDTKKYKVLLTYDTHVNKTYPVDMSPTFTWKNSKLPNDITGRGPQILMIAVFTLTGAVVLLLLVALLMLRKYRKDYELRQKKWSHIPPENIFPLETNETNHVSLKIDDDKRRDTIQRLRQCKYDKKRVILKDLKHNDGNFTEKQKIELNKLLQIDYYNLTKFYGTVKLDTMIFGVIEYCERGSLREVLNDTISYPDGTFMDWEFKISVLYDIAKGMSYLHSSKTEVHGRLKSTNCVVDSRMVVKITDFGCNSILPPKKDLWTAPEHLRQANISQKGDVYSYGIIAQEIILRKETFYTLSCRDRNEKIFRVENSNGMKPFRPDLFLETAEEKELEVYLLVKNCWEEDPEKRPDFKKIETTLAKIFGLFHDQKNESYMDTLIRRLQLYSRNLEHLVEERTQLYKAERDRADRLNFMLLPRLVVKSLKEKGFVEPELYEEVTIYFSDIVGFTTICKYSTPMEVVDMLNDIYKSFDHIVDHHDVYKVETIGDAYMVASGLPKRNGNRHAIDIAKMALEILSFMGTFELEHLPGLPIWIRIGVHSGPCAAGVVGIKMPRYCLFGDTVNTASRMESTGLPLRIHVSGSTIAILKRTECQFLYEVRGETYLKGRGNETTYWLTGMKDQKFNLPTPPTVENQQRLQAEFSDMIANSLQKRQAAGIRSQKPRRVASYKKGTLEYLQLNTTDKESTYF

[2] = system: C30 anti-STp monoclonal antibody; conditions: read-out: IC50, inhibition of C30 mAb binding to ELISA coating (peptides from RP-HPLC peaks)

CC(C)C[C@@H]1NC(=O)[C@H](CCC(=O)O)NC(=O)[C@@H]2CSSC[C@@H]3NC(=O)[C@H](C)NC(=O)[C@@H]4CCCN4C(=O)[C@H](CC(N)=O)NC(=O)[C@H](CSSC[C@H](NC(=O)[C@H](Cc4ccc(O)cc4)NC(=O)[C@H](CC(N)=O)NC(=O)[C@H](CO)NC(=O)[C@H](CO)NC(=O)[C@@H](N)CC(N)=O)C(=O)N2)NC(=O)[C@H](CSSC[C@@H](C(=O)N[C@@H](Cc2ccc(O)cc2)C(=O)O)NC(=O)CNC(=O)[C@H]([C@@H](C)O)NC3=O)NC1=O [ETEC STh] (H-NSSNYCCELCCNPACTGCY-OH; disulfide 6-11, 7-15, 10-18; N-terminus and C-terminus assumed)
EC50 [1]: 22.9 ± 6.8 nM

CC(C)C[C@@H]1NC(=O)[C@H](CCC(=O)O)NC(=O)[C@@H]2CSSC[C@@H]3NC(=O)[C@H](C)NC(=O)[C@@H]4CCCN4C(=O)[C@H](CC(N)=O)NC(=O)[C@H](CSSC[C@H](NC(=O)[C@H](Cc4ccc(O)cc4)NC(=O)[C@H](Cc4ccccc4)NC(=O)[C@@H](NC(=O)[C@@H](N)CC(N)=O)[C@@H](C)O)C(=O)N2)NC(=O)[C@H](CSSC[C@@H](C(=O)N[C@@H](Cc2ccc(O)cc2)C(=O)O)NC(=O)CNC(=O)[C@H](C)NC3=O)NC1=O [STp]
EC50 [1]: 15.4 ± 3.8 nM

CC(C)C[C@@H]1NC(=O)[C@H](CCC(=O)O)NC(=O)[C@@H]2CSSC[C@@H]3NC(=O)[C@H](C)NC(=O)[C@@H]4CCCN4C(=O)[C@H](CC(N)=O)NC(=O)[C@H](CSSC[C@H](NC(=O)[C@H](Cc4ccc(O)cc4)NC(=O)[C@H](CC(N)=O)NC(=O)[C@H](CO)NC(=O)[C@H](CO)NC(=O)[C@@H](N)CC(N)=O)C(=O)N2)NC(=O)[C@H](CSSC[C@@H](C(=O)N[C@@H](Cc2ccc(O)cc2)C(=O)O)NC(=O)CNC(=O)[C@H]([C@@H](C)O)NC3=O)NC1=O [STh] (H-NSSNYCCELCCNPACTGCY-OH; disulfide 6-11, 7-15, 10-18)
EC50 [1]: 15.4 ± 3 nM | IC50 [2]: 4.2 ± 0.3 nM

CC(C)C[C@@H]1NC(=O)[C@H](CCC(=O)O)NC(=O)[C@@H]2CSSC[C@@H]3NC(=O)[C@H](C)NC(=O)[C@@H]4CCCN4C(=O)[C@H](CC(N)=O)NC(=O)[C@H](CSSC[C@H](NC(=O)[C@H](Cc4ccc(O)cc4)NC(=O)[C@H](CC(N)=O)NC(=O)[C@H](CO)NC(=O)[C@H](CO)NC(=O)[C@@H](N)CC(N)=O)C(=O)N2)NC(=O)[C@H](CSSC[C@@H](C(=O)N[C@@H](Cc2ccc(O)cc2)C(=O)O)NC(=O)CNC(=O)[C@H]([C@@H](C)O)NC3=O)NC1=O [synthetic STh] (H-NSSNYCCELCCNPACTGCY-OH; disulfide 6-11, 7-15, 10-18)
EC50 [1]: 9.6 ± 1.8 nM | IC50 [2]: 2.3 ± 0.1 nM
